The results in this text go back to US12685312B2, “Sulfonamide apyrase inhibitors” (Texas Crop Science, Inc., priority 2022, dated 2026).

For one assay, the system named is apyrase. Nature of the assay: Screen for apyrase inhibitors (Method 1, in vitro phosphate-release absorbance assay). In kind it is biochemical. To be noted: inhibitor conc at 1 mM stock, 1 hr room temperature, absorbance 630 nm; rounded average of two assay results. In short, it runs like this:
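Phosphate-release colorimetric assay (Windsor method) in 60 mM Hepes, 3 mM MgCl2, 3 mM CaCl2, 3 mM ATP, pH 6.5, with compound or DMSO control added. Released phosphate developed with ammonium molybdate and ascorbic acid/TCA, then stopped with citrate/acetic acid.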

The subject of assay [1] is Zymoseptoria tritici with a reduced susceptibility to strobilurin fungicides. Nature of the assay: In vitro assessment of combination activity with fungicides (Method 2).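 Note: scored as inactive active or highly active.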 Type of assay: cell-based. To be noted: fungicide at a rate just below that giving any control; visual % control. As to the method:
(§1) Method 2: In Vitro Assessment of Combination Activity
(§2) Selected compounds were assessed in combination with fungicides against a range of commercially important plant pathogenic fungi.
(§3) The test was conducted as follows. A fungicide was applied to a fungal plant pathogen at a rate slightly below that at which it gave any control, in combination with a suitable dose of the test compound. The test compound was recorded as active if control of the pathogen was observed.
(§4) In more detail, the test was conducted as follows. For each combination of fungicide, pathogen and test compound, the following wells were used. Well 1 contained a fungal pathogen growing on agar, and a fungicide at a rate just below that at which it gave any control of the pathogen. Well 2 was the same as Well 1, except that the test compound was also added at Rate 1. Well 3 was the same as Well 2, except that the test compound was added at Rate 2, where Rate 2 was higher than Rate 1. Finally, as a benchmark, Well 4 was the same as Well 1, except that it contained the fungicide at a higher rate, at which it gave partial control of the pathogen. Each of the Wells 1 to 4 were run in duplicate, giving a total of 8 wells for each combination of fungicide, pathogen and test compound. For each well, after a suitable period of incubation, a visual assessment of the % control of the pathogen by the fungicide was made.
(§5) The following fungicides were used in this assay: azoxystrobin, fluxapyroxad, and desthio prothioconazole. The following fungal pathogens were used in this assay: First, a strain of Zymoseptoria tritici with a reduced susceptibility to strobilurin fungicides; second a strain of Zymoseptoria tritici with a reduced susceptibility to SDHI fungicides (i.e., those that inhibit succinate dehydrogenase); and third, Microdochium nivale.

Another assay has as its system Microdochium nivale. The description is as above. In kind it is cell-based. To be noted: fungicide at a rate just below that giving any control; visual % control. Here is the method: as §1, §2, §3, §4, §5;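 note: scored as inactive active or highly active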
Assay [2] concerns Zymoseptoria tritici with a reduced susceptibility to SDHI fungicides. Described as above. In kind it is cell-based. The following applies: fungicide at a rate just below that giving any control; visual % control. Here is the method:
as §1, §2, §3, §4, §5

The test system of assay [3] is plant pathogenic fungi (Zymoseptoria tritici strains, Microdochium nivale). The experiment in a line: In vitro combination assay (Method 2), overall comparison with Roux Compound 13. The following applies: azoxystrobin, fluxapyroxad, desthio prothioconazole; three fungal strains. Type of assay: cell-based. Here is the method:
as §1, §2, §3, §4, §5
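Throughout, for enhancement of activity of azoxystrobin: scored as inactive active or highly active.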
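Throughout, for enhancement of activity of desthio prothioconazole: scored as inactive active or highly active.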
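Throughout, for enhancement of activity of fluxapyroxad: scored as inactive active or highly active.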

On to `O=C(Nc1ccccc1)c1ccc(S(=O)(=O)Nc2ccccc2)cc1` [I-392, N-phenyl-4-(N-phenylsulfamoyl)benzamide], for which the “% Inhibition of Apyrase” value in the assay with apyrase is listed as 59%. The “enhancement of activity of azoxystrobin” value in assay [1] and in assay [2] was “enhanced the activity” in each case. Further, the “enhancement of activity of desthio prothioconazole” value (in assay [1]; in the assay on Microdochium nivale; in assay [2]) was “highly active” in each case.

For the compound `Cc1ccccc1NS(=O)(=O)c1cc(C(=O)Nc2cccc([N+](=O)[O-])c2)ccc1Cl` [I-2, 4-chloro-N-(3-nitrophenyl)-3-(N-(o-tolyl)sulfamoyl)benzamide], the “enhancer activity in the combination assay compared with Roux Compound 13” value in assay [3] was “superior enhancer activity than Roux Compound 13”. Moreover, the “% Inhibition of Apyrase” value with apyrase was found to be 77%.

For the compound `O=C(/C=C/c1ccco1)Nc1cccc(S(=O)(=O)Nc2ccc(Br)cc2)c1` [I-226, (E)-N-(3-(N-(4-bromophenyl)sulfamoyl)phenyl)-3-(furan-2-yl)acrylamide], in assay [3], the “enhancer activity in the combination assay compared with Roux Compound 13” value was “superior enhancer activity than Roux Compound 13”. In addition, the “% Inhibition of Apyrase” value with apyrase is given as 73%.

Take `COc1ccc(NC(=O)c2cccc(S(=O)(=O)Nc3ccc(Br)cc3)c2)cc1` [I-18, 3-(N-(4-bromophenyl)sulfamoyl)-N-(4-methoxyphenyl)benzamide]: the “enhancer activity in the combination assay compared with Roux Compound 13” value in assay [3] is on record as “superior enhancer activity than Roux Compound 13”. For the same compound, the “% Inhibition of Apyrase” value with apyrase amounted to 51%.

Consider `O=C(Nc1cccc(Br)c1)c1cccc(S(=O)(=O)Nc2ccc3c(c2)OCO3)c1` [I-186, 3-(N-(benzo[d][1,3]dioxol-5-yl)sulfamoyl)-N-(3-bromophenyl)benzamide], for which the “enhancer activity in the combination assay compared with Roux Compound 13” value in assay [3] was “superior enhancer activity than Roux Compound 13”. In addition, the “% Inhibition of Apyrase” value with apyrase is on record as 72%.

For the compound `COC(=O)c1ccc(NC(=O)c2ccccc2S(=O)(=O)N(C)c2ccccc2)cc1` [I-233, methyl 4-(2-(N-methyl-N-phenylsulfamoyl)benzamido)benzoate], in assay [3], the “enhancer activity in the combination assay compared with Roux Compound 13” value is given as “superior enhancer activity than Roux Compound 13”. In the assay on apyrase, the “% Inhibition of Apyrase” value worked out at 61%.

On to `O=C(Nc1cccc([N+](=O)[O-])c1)c1cccc(S(=O)(=O)Nc2ccc(Br)cc2)c1` [Roux compound 13, reference compound], for which the “enhancer activity in the combination assay compared with Roux Compound 13” value in assay [3] was “little or no activity”. Moreover, the “enhancement of activity of azoxystrobin” value is “failing to enhance activity” in assay [1], “enhancing the activity” in the assay on Microdochium nivale and “failing to enhance activity” in assay [2]. Further, the “enhancement of activity of desthio prothioconazole” value in assay [1] and in assay [2] was “failing to enhance activity” each time. Moreover, the “enhancement of activity of fluxapyroxad” value in assay [1] and in assay [2] was “failing to enhance activity” throughout.

On to `O=C(Nc1cccc(S(=O)(=O)Nc2ccc(Br)cc2)c1)c1ccc(Cl)nc1` [I-221, N-(3-(N-(4-bromophenyl)sulfamoyl)phenyl)-6-chloronicotinamide], for which the “enhancer activity in the combination assay compared with Roux Compound 13” value in assay [3] is “superior enhancer activity than Roux Compound 13”. The “% Inhibition of Apyrase” value in the assay on apyrase stood at 67%.

On to `O=C(Nc1ccc(Br)cc1)c1cccc(S(=O)(=O)Nc2cc(C(F)(F)F)ccc2Cl)c1` [I-178, N-(4-bromophenyl)-3-(N-(2-chloro-5-(trifluoromethyl)phenyl)sulfamoyl)benzamide], for which the “enhancer activity in the combination assay compared with Roux Compound 13” value in assay [3] is recorded as “superior enhancer activity than Roux Compound 13”. The “% Inhibition of Apyrase” value in the assay on apyrase was found to be 76%.

For the compound `N#Cc1cccc(NC(=O)c2cccc(S(=O)(=O)Nc3ccc(Br)cc3)c2)c1` [I-16, 3-(N-(4-bromophenyl)sulfamoyl)-N-(3-cyanophenyl)benzamide], in assay [3], the “enhancer activity in the combination assay compared with Roux Compound 13” value is given as “superior enhancer activity than Roux Compound 13”. In the assay on apyrase, the “% Inhibition of Apyrase” value was 54%.

Consider `O=C(Nc1cccc(C(F)(F)F)c1)c1cccc(NS(=O)(=O)c2cccc(C(F)(F)F)c2)c1` [I-217, N-(3-(trifluoromethyl)phenyl)-3-((3-(trifluoromethyl)phenyl)sulfonamido) benzamide], for which the “enhancer activity in the combination assay compared with Roux Compound 13” value in assay [3] is listed as “superior enhancer activity than Roux Compound 13”. The “% Inhibition of Apyrase” value with apyrase worked out at 70%.

As for `Cc1cc(NC(=O)c2cccc(NS(=O)(=O)c3ccc(F)c(F)c3)c2)ccc1Br` [I-191, N-(4-bromo-3-methylphenyl)-3-((3,4-difluorophenyl)sulfonamido)benzamide], the “enhancer activity in the combination assay compared with Roux Compound 13” value in assay [3] was “superior enhancer activity than Roux Compound 13”. Moreover, the “% Inhibition of Apyrase” value with apyrase worked out at 76%.

For `O=C(Nc1cccc(S(=O)(=O)Nc2ccc(Br)cc2)c1)C1CCCCC1` [I-219, N-(3-(N-(4-bromophenyl)sulfamoyl)phenyl) cyclohexanecarboxamide], the “enhancer activity in the combination assay compared with Roux Compound 13” value in assay [3] is given as “superior enhancer activity than Roux Compound 13”. In addition, the “% Inhibition of Apyrase” value with apyrase amounted to 73%.

Turning to `N#Cc1ccccc1S(=O)(=O)Nc1cccc(C(=O)Nc2cccc(C(F)(F)F)c2)c1` [I-229, 3-((2-cyanophenyl)sulfonamido)-N-(3-(trifluoromethyl)phenyl)benzamide], in assay [3], the “enhancer activity in the combination assay compared with Roux Compound 13” value is recorded as “superior enhancer activity than Roux Compound 13”. In the assay with apyrase, the “% Inhibition of Apyrase” value was 66%.

In the case of `COc1cc(Cl)c(C)cc1NC(=O)c1ccccc1S(=O)(=O)N(C)c1ccccc1` [I-807, N-(4-chloro-2-methoxy-5-methylphenyl)-2-(N-methyl-N-phenylsulfamoyl)benzamide], in assay [3], the “enhancer activity in the combination assay compared with Roux Compound 13” value is given as “superior enhancer activity than Roux Compound 13”. Also, in the assay on apyrase, the “% Inhibition of Apyrase” value is listed as 82%.

In the case of `Cc1ccc(C(=O)Nc2cccc(NS(=O)(=O)c3ccccc3)c2)cc1F` [I-209, 3-fluoro-4-methyl-N-(3-(phenylsulfonamido)phenyl)benzamide], the “enhancer activity in the combination assay compared with Roux Compound 13” value in assay [3] was “superior enhancer activity than Roux Compound 13”. The “% Inhibition of Apyrase” value with apyrase came to 75%.

As for `O=C(Nc1ccc(Br)cc1)c1cccc(S(=O)(=O)Nc2ccc3c(c2)OCO3)c1` [I-201, 3-(N-(benzo[d][1,3]dioxol-5-yl)sulfamoyl)-N-(4-bromophenyl)benzamide], the “enhancer activity in the combination assay compared with Roux Compound 13” value in assay [3] is recorded as “superior enhancer activity than Roux Compound 13”. For the same compound, the “% Inhibition of Apyrase” value in the assay with apyrase is listed as 77%.

For `O=C(Nc1cccc(C(F)(F)F)c1)c1cccc(NS(=O)(=O)c2cccc(Cl)c2)c1` [I-317, 3-((3-chlorophenyl)sulfonamido)-N-(3-(trifluoromethyl)phenyl)benzamide], the “enhancer activity in the combination assay compared with Roux Compound 13” value in assay [3] is listed as “superior enhancer activity than Roux Compound 13”. In addition, the “% Inhibition of Apyrase” value with apyrase was determined as 69%.

Regarding `O=C(Nc1cccc(NS(=O)(=O)c2ccc(Cl)cc2)c1)c1ccccc1` [I-344, N-(3-((4-chlorophenyl)sulfonamido)phenyl)benzamide], in the assay with apyrase, the “% Inhibition of Apyrase” value came to 56%.

As for `COc1ccccc1NC(=O)c1ccc(NS(=O)(=O)c2ccc3c(c2)OCCO3)cc1` [I-898, 4-((2,3-dihydrobenzo[b][1,4]dioxine)-6-sulfonamido)-N-(2-methoxyphenyl)benzamide], the “% Inhibition of Apyrase” value with apyrase was determined as 65%.

Regarding `O=C(Nc1nnc[nH]1)c1cccc(NS(=O)(=O)c2ccc(Br)cc2)c1` [I-672, 3-((4-bromophenyl)sulfonamido)-N-(4H-1,2,4-triazol-3-yl)benzamide], the “% Inhibition of Apyrase” value in the assay on apyrase stood at 1%.

In the case of `NS(=O)(=O)c1ccc(NC(=O)c2ccc(NS(=O)(=O)c3ccc(F)c(Cl)c3)cc2)cc1` [I-961, 4-((3-chloro-4-fluorophenyl)sulfonamido)-N-(4-sulfamoylphenyl)benzamide], in the assay on apyrase, the “% Inhibition of Apyrase” value stood at 14%.

As to `COc1ccccc1NC(=O)c1ccc(NS(=O)(=O)c2ccc(C#N)cc2)cc1` [I-942, 4-((4-cyanophenyl)sulfonamido)-N-(2-methoxyphenyl)benzamide], the “% Inhibition of Apyrase” value in the assay with apyrase came to 49%.

Take `COc1ccc(NS(=O)(=O)c2cccc(NC(=O)c3ccc(Cl)s3)c2)cc1` [I-749, 5-chloro-N-(3-(N-(4-methoxyphenyl)sulfamoyl)phenyl)thiophene-2-carboxamide]: in the assay with apyrase, the “% Inhibition of Apyrase” value is 41%.
